Laboratory results taken from patent US20250276983A1, “COMPOUNDS AND METHODS FOR MODULATING HER2” (IAMBIC THERAPEUTICS, INC., priority 2022, published 2025).
Like-named read-outs stand apart in the source and are kept apart here.

Columns and labels:
Assay type in all cases: cell-based
BaF3_HER2YVMA cells = test: Cell growth inhibition assay, BaF3_HER2YVMA; details: read-out: HER2-YVMA IC50 (nM), cell growth inhibition
BaF3_HER2WT cells = test: Cell growth inhibition assay, BaF3_HER2WT; details: 3 days treatment, CellTiterGlo 2.0, read-out: HER2 WT IC50 (nM), cell growth inhibition
BaF3_EGFRWT cells = test: Cell growth inhibition assay, BaF3_EGFRWT; details: 80 ng/mL recombinant human EGF, 3 days treatment, CellTiterGlo 2.0, read-out: EGFR WT IC50 (nM), cell growth inhibition
[1] = 72 h, BaF3_HER2YVMA cells, 3 days treatment, CellTiterGlo 2.0
[2] = BaF3_HER2YVMA cells, 3 days treatment, CellTiterGlo 2.0

Row | IC50 (BaF3_HER2YVMA cells; [1]) | IC50 (BaF3_HER2WT cells; 72 h) | IC50 (BaF3_EGFRWT cells; 72 h) | IC50 (BaF3_HER2YVMA cells; [2]) | IC50 (BaF3_HER2WT cells) | IC50 (BaF3_EGFRWT cells) | SMILES | IC50 (BaF3_HER2YVMA cells; 72 h)
1 | < 200 nM | < 200 nM | 1500 to 5000 nM |  |  |  | CO[C@H]1CN(C/C=C/C(=O)N2CC(c3ccn4ncnc(Nc5ccc(Oc6ccc7c(c6)ncn7C)c(C)c5)c34)C2)C[C@H]1OC [Example 165, (E)-4-((3R,4S)-3,4-dimethoxypyrrolidin-1-yl)-1-(3-(4-((3-methyl-4-((1-methyl-1H-benzo[d]imidazol-5-yl)oxy)phenyl)amino)pyrrolo[2,1-f][1,2,4]triazin-5-yl)azetidin-1-yl)but-2-en-1-one] | 
2 | > 5000 nM | 1500 to 5000 nM | 1500 to 5000 nM |  |  |  | Cc1cc(Nc2c(C#N)cnn3ccc(C4CN(C(=O)/C=C/CN(C)C)C4)c23)ccc1Oc1ccn2ncnc2c1 [Example 86, (E)-4-((4-([1,2,4]triazolo[1,5-a]pyridin-7-yloxy)-3-methylphenyl)amino)-5-(1-(4-(dimethylamino)-but-2-enoyl)azetidin-3-yl)pyrrolo[1,2-b]pyridazine-3-carbonitrile] | 
3 |  |  | 1500 to 5000 nM | < 200 nM | < 200 nM |  | C=CC(=O)N1CC2CCC1CC2c1ccn2ncnc(Nc3ccc(Oc4ccn5ncnc5c4)c(C)c3)c12 (single isomer, unassigned) [Examples 139 and 140, first eluting isomer, 1-(5-(4-((4-([1,2,4]triazolo[1,5-a]pyridin-7-yloxy)-3-methylphenyl)amino)pyrrolo[2,1-f][1,2,4]triazin-5-yl)-2-azabicyclo[2.2.2]octan-2-yl)prop-2-en-1-one] | 
4 | 200 to 500 nM | < 200 nM | 1500 to 5000 nM |  |  |  | C=CC(=O)NC1CCN(c2ccn3ncnc(Nc4ccc(Oc5ccn6ncnc6c5)c(C)c4)c23)CC1 [Example 78, N-(1-(4-((4-([1,2,4]triazolo[1,5-a]pyridin-7-yloxy)-3-methylphenyl)amino)pyrrolo[2,1-f][1,2,4]triazin-5-yl)piperidin-4-yl)acrylamide] | 
5 | < 200 nM | < 200 nM | 500 to 1500 nM |  |  |  | Cc1cc(Nc2ncnn3ccc(C4CN(C(=O)/C=C/CN(C)C)C4)c23)ccc1Oc1cc2ncnn2cn1 [Example 158, (E)-1-(3-(4-((4-([1,2,4]triazolo[1,5-c]pyrimidin-7-yloxy)-3-methylphenyl)amino)pyrrolo[2,1-f][1,2,4]triazin-5-yl)azetidin-1-yl)-4-(dimethylamino)but-2-en-1-one] | 
6 |  |  |  | 200 to 500 nM | < 200 nM | < 200 nM | C=C(CN(C)C)C(=O)N1CC2CCC1CC2c1ccn2ncnc(Nc3ccc(Oc4ccn5ncnc5c4)c(C)c3)c12 (single isomer, unassigned) [Examples 135 and 136, second eluting isomer, 1-(5-(4-((4-([1,2,4]triazolo[1,5-a]pyridin-7-yloxy)-3-methylphenyl)amino)pyrrolo[2,1-f][1,2,4]triazin-5-yl)-2-azabicyclo[2.2.2]octan-2-yl)-2-((dimethylamino)methyl)prop-2-en-1-one] | 
7 | 500 to 1500 nM | < 200 nM | 1500 to 5000 nM |  |  |  | C=CC(=O)N(C)C1CCN(c2ccn3ncnc(Nc4ccc(Oc5ccn6ncnc6c5)c(C)c4)c23)CC1 [Example 74, N-(1-(4-((4-([1,2,4]triazolo[1,5-a]pyridin-7-yloxy)-3-methylphenyl)amino)pyrrolo[2,1-f][1,2,4]triazin-5-yl)piperidin-4-yl)-N-methylacrylamide] | 
8 | < 200 nM | < 200 nM | 1500 to 5000 nM |  |  |  | Cc1cc(Nc2ncnn3ccc(C4CCN(C(=O)[C@@H](F)Cl)CC4)c23)ccc1Oc1ccn2ncnc2c1 (single isomer, unassigned) [Examples 173 and 174, second eluting isomer] | 
9 | < 200 nM | < 200 nM | 1500 to 5000 nM |  |  |  | CNC/C=C/C(=O)N1CC(c2ccn3ncnc(Nc4ccc(Oc5ccn6ncnc6c5)c(C)c4)c23)C1 [Example 151, (E)-1-(3-(4-((4-([1,2,4]triazolo[1,5-a]pyridin-7-yloxy)-3-methylphenyl)amino)pyrrolo[2,1-f][1,2,4]triazin-5-yl)azetidin-1-yl)-4-(methylamino)but-2-en-1-one] | 
10 | > 5000 nM | 1500 to 5000 nM | 1500 to 5000 nM |  |  |  | C=CC(=O)N1CC2(C1)CN(c1ccn3ncnc(Nc4cnc(Oc5ccn6ncnc6c5)c(Cl)c4)c13)C2 [Example 15, 1-(6-(4-((6-([1,2,4]triazolo[1,5-a]pyridin-7-yloxy)-5-chloropyridin-3-yl)amino)pyrrolo[2,1-f][1,2,4]triazin-5-yl)-2,6-diazaspiro[3.3]heptan-2-yl)prop-2-en-1-one] | 
11 | < 200 nM | < 200 nM |  |  |  | 1500 to 5000 nM | C=C(CN(C)C)C(=O)N1CC2CCC1CC2c1ccn2ncnc(Nc3ccc(Oc4ccn5ncnc5c4)c(C)c3)c12 (single isomer, unassigned) [Examples 135 and 136, first eluting isomer, 1-(5-(4-((4-([1,2,4]triazolo[1,5-a]pyridin-7-yloxy)-3-methylphenyl)amino)pyrrolo[2,1-f][1,2,4]triazin-5-yl)-2-azabicyclo[2.2.2]octan-2-yl)-2-((dimethylamino)methyl)prop-2-en-1-one] | 
12 | < 200 nM | < 200 nM | 1500 to 5000 nM |  |  |  | Cc1cc(Nc2ncnn3ccc(C4CCN(C(=O)/C=C/CN5CCCCC5)CC4)c23)ccc1Oc1ccn2ncnc2c1 [Example 57, (E)-1-(4-(4-((4-([1,2,4]triazolo[1,5-a]pyridin-7-yloxy)-3-methylphenyl)amino)pyrrolo[2,1-f][1,2,4]triazin-5-yl)piperidin-1-yl)-4-(piperidin-1-yl)but-2-en-1-one] | 
13 | < 200 nM | < 200 nM | 1500 to 5000 nM |  |  |  | Cc1cc(Nc2ncnn3ccc(C4CN(C(=O)/C=C/CN(C)C)C4)c23)ccc1Oc1ccn2ccnc2c1 [Example 157, (E)-4-(dimethylamino)-1-(3-(4-((4-(imidazo[1,2-a]pyridin-7-yloxy)-3-methylphenyl)amino)pyrrolo [2,1-f][1,2,4]triazin-5-yl)azetidin-1-yl)but-2-en-1-one] | 
14 | < 200 nM | < 200 nM | 500 to 1500 nM |  |  |  | C=C(CN(C)C)C(=O)N1CC(c2ccn3ncnc(Nc4ccc(Oc5ccc6c(c5)ncn6C)c(C)c4)c23)C1 [Example 67, 2-((dimethylamino)methyl)-1-(3-(4-((3-methyl-4-((1-methyl-1H-benzo[d]imidazol-5-yl)oxy)phenyl)amino)pyrrolo[2,1-f][1,2,4]triazin-5-yl)azetidin-1-yl)prop-2-en-1-one] | 
15 | < 200 nM | < 200 nM | 1500 to 5000 nM |  |  |  | Cc1cc(Nc2ncnn3ccc(C4CCN(C(=O)/C=C/CN(C)C)CC4)c23)ccc1Oc1ccc2c(c1)ncn2C [Example 133, (E)-4-(dimethylamino)-1-(4-(4-((3-methyl-4-((1-methyl-1H-benzo[d]-224-midazole-5-yl)oxy)phenyl)amino)pyrrolo[2,1-f][1,2,4]triazin-5-yl)piperidin-1-yl)but-2-en-1-one] | 
16 | 1500 to 5000 nM | 200 to 500 nM | 1500 to 5000 nM |  |  |  | Cc1cc(Nc2ncnn3ccc(C4CN(C(=O)/C=C/CN(C)C)C4)c23)ccc1Oc1ccn2cnnc2c1 [Example 134, (E)-1-(3-(4-((4-([1,2,4]triazolo[4,3-a]pyridin-7-yloxy)-3-methylphenyl)amino)pyrrolo[2,1-f][1,2,4]triazin-5-yl)azetidin-1-yl)-4-(dimethylamino)but-2-en-1-one] | 

Row | SMILES | IC50 (BaF3_HER2YVMA cells; [1]) | IC50 (BaF3_HER2WT cells; 72 h) | IC50 (BaF3_EGFRWT cells; 72 h) | IC50 (BaF3_HER2YVMA cells; [2]) | IC50 (BaF3_HER2WT cells) | IC50 (BaF3_EGFRWT cells) | IC50 (BaF3_HER2YVMA cells; 72 h)
17 | Cc1cc(Nc2ncnn3ccc(C4CC5CCC(C4)N5C(=O)/C=C/CN(C)C)c23)ccc1Oc1ccn2ncnc2c1 (single isomer, unassigned) [Examples 122 and 123, second eluting isomer, (E)-1-(3-(4-((4-([1,2,4]triazolo[1,5-a]pyridin-7-yloxy)-3-methylphenyl)amino)pyrrolo[2,1-f][1,2,4]triazin-5-yl)-8-azabicyclo[3.2.1]octan-8-yl)-4-(dimethylamino)but-2-en-1-one] |  |  |  | 200 to 500 nM | < 200 nM | 1500 to 5000 nM | 
18 | C=C(C#N)C(=O)N1CCC(c2ccn3ncnc(Nc4ccc(Oc5ccn6ncnc6c5)c(C)c4)c23)CC1 [Example 27, 2-(4-(4-((4-([1,2,4]triazolo[1,5-a]pyridin-7-yloxy)-3-methylphenyl)amino)pyrrolo[2,1-f][1,2,4]triazin-5-yl)piperidine-1-carbonyl)acrylonitrile] |  | 500 to 1500 nM | 1500 to 5000 nM |  |  |  | 1500 to 5000 nM
19 | C=C(CN(C)C)C(=O)N1CC2CCC(C1)N2c1ccn2ncnc(Nc3ccc(Oc4ccn5ncnc5c4)c(C)c3)c12 [Example 49, 1-(8-(4-((4-([1,2,4]triazolo[1,5-a]pyridin-7-yloxy)-3-methylphenyl)amino)pyrrolo[2,1-f][1,2,4]triazin-5-yl)-3,8-diazabicyclo[3.2.1]octan-3-yl)-2-((dimethylamino)methyl)prop-2-en-1-one acetate] | < 200 nM | < 200 nM | 1500 to 5000 nM |  |  |  | 
20 | C=CC(=O)N1CC=C(c2ccn3ncnc(Nc4ccc(Oc5ccn6ncnc6c5)c(C)c4)c23)C1 [Example 28, 1-(3-(4-((4-([1,2,4]triazolo[1,5-a]pyridin-7-yloxy)-3-methylphenyl)amino)pyrrolo[2,1-f][1,2,4]triazin-5-yl)-2,5-dihydro-1H-pyrrol-1-yl)prop-2-en-1-one acetate] | 500 to 1500 nM | < 200 nM | 1500 to 5000 nM |  |  |  | 
21 | C=C(CN(C)C)C(=O)N1C2CCC1CN(c1ccn3ncnc(Nc4ccc(Oc5ccn6ncnc6c5)c(C)c4)c13)C2 [Example 48, 1-(3-(4-((4-([1,2,4]triazolo[1,5-a]pyridin-7-yloxy)-3-methylphenyl)amino)pyrrolo[2,1-f][1,2,4]triazin-5-yl)-3,8-diazabicyclo[3.2.1]octan-8-yl)-2-((dimethylamino)methyl)prop-2-en-1-one] | 1500 to 5000 nM | 200 to 500 nM | 1500 to 5000 nM |  |  |  | 
